Assay [1] has as its target T1, human LARP1 LaM domain (residues 323–410) (Homo sapiens, UniProt Q6PKG0).
T1 construct: human LARP1 LaM domain (residues 323–410); made in house; host or cells: E. coli
Put plainly: Isothermal titration calorimetry (ITC) of RNA ligands binding LARP1 (323-410). The conditions noted are these: for Rel. aff. (affinity relative to AAAAAA): Figure 2B, higher = tighter binding than A6; for binding to the LaM domain by ITC (in words): LaM 40 μM in cell, cyclic dinucleotide 730-860 μM in syringe. As for the experimental part: ITC experiments were performed on the VP-ITC titration calorimeter (Malvern Instruments Ltd) except where noted. […] All experiments were carried out at 20°C with 29 injections of 10 µl. Results were analysed using ORIGIN software (MicroCal) and fitted to a binding model with a single set of identical sites, except where noted.
(In general: ITC needs no label: the signal is the heat of the interaction.)

Assay [2] deals with T1, human LARP1 LaM domain (residues 323–410). Nature of the assay: NMR titration of single nucleotides into 15N-labelled LARP1 (323-410), chemical shift changes. In kind it is binding. The conditions noted are these: for Kd: 0.1 mM 15N-LARP1 (323-410), 10 mM MES pH 6.3, 100 mM NaCl, 25°C, fit accounts for bound ligand, two nucleotide binding sites, read-out: Kd, binding affinity estimated from chemical shift change (I364 amide) as a function of nucleotide concentration. As to the method:
We carried out NMR titrations with single nucleotides binding to^15N-labelled LARP1 LaM to isolate the individual nucleotide interactions (Figure 1A). The addition of nucleotides caused spectral changes similar to those observed with the hexamer A6 but with smaller shifts and fewer signals affected (Suppl. Figure S1). […] The signals with the largest changes were the amide of Ile364 and side chain amides of Gln333.
At 200 µM, 5´-GMP shifted the Gln333 signal twice as much as 5´-AMP. […] We used the size of the chemical shift change as a function of nucleotide concentration to estimate binding affinities (Figure 1C). […] This had the advantage that it also provided an estimate of the binding stoichiometry. For 5´-GMP, the stoichiometry was measured to be 2.04 with an affinity of 40 µM. […] This is at odds with the affinities of oligonucleotides measured by isothermal titration calorimetry (ITC).
NMR samples were exchanged into 10 mM MES pH 6.3, 100 mM NaCl, 1 mM TCEP. For NMR titrations, nucleotides were added to 0.1 mM^15N-labelled LARP1 (323–410) to final molar ratios of 5:1. All NMR experiments were performed at 25°C using a Bruker 600 MHz spectrometer. NMR spectra were processed using NMRPipe and analysed with SPARKY [51]. Binding affinities were measured by fitting the observed chemical shift changes accounting for bound ligand with a stoichiometry of two nucleotide binding sites.

The target in assay [3] is T2, LARP1 323-410 Q333A (Homo sapiens, UniProt Q6PKG0).
T2 construct: ITC Data Collection and Analysis for LARP1 323-410 Q333A; His-tag; made in house; host or cells: E. coli
Put plainly: ITC of RNA ligands binding LARP1 323-410 Q333A. The note with it: Q333A mutant; LaM 30 (cell), RNA 300-600 (syringe). As to the method:
(§1) ITC experiments were performed on the VP-ITC titration calorimeter (Malvern Instruments Ltd) except where noted. The syringe was loaded with 300 µM RNA sample, while the sample cell contained 20–30 µM LARP1 (323–410) sample. All experiments were carried out at 20°C with 29 injections of 10 µl. Results were analysed using ORIGIN software (MicroCal) and fitted to a binding model with a single set of identical sites, except where noted.
(§2) Table S3. ITC Data Collection and Analysis for LARP1 323-410 Q333A
(§3) RNA Kd, nM relative to DH, kcal mol-1 DS, cal mol-1 K-1 Conc., µM
(§4) 1Data acquired on iTC200 (Malvern Instruments Ltd).

For assay [4], the target named is T3, LARP1 323-410 Q333A (Homo sapiens, UniProt Q6PKG0, Q410A).
T3 construct: ITC Data Collection and Analysis for LARP1 323-410 Q333A; His-tag; made in house; host or cells: E. coli
Nature of the assay: ITC of RNA ligands binding LARP1 323-410 Q333A. The conditions noted are these: Q333A mutant. As for the experimental part: as §1, §2, §3, §4

Assay [5] has as its target T1, human LARP1 LaM domain (residues 323–410). The conditions noted are these: ITC of RNA oligonucleotides; cited from earlier work.
Where [6] appears, read: ITC, 20°C, LaM 20-30 µM in cell, RNA 300 µM in syringe, single set of identical sites, read-out: Kd.
Setting [7] is: ITC, 20°C, LaM in cell, RNA in syringe.
Where [8] appears, read: Table S1, LaM in cell, RNA in syringe.
[9] abbreviates: reversed titration: RNA 15 (cell), LaM 300 (syringe).
Where [10] appears, read: ITC, 20°C, LaM in cell, RNA in syringe, read-out: Kd.

Several values for one entry are separate records, joined by “and”; a condition that tells them apart may be missing. Equal values may be shown once. A value given as a limit tells only on which side of the number the result lay.

Take 5´-APAPAPAPAPSA-3´ [(RP)-AAAAAPSA]: the Kd in assay [1] (setting [6]) came to 0.29 µM. In assay [1] (setting [7]), this compound gave a ΔH of -19.4 kcal/mol and a ΔS of -36.2 cal mol^-1 K^-1. In addition, in assay [1] (setting [8]), the “Affinity relative to A6” value was determined as 1.16.

For 5´-APAPAPAPAPA-3´ [AAAAAA], the “Rel. aff. (affinity relative to AAAAAA)” value in assay [1] was determined as 1.0. In addition, the Kd in assay [1] (setting [6]) came to 0.25 µM. Also, in assay [1] (setting [7]), the ΔH was -19.9 kcal/mol and the ΔS is listed as -37.6 cal mol^-1 K^-1. Also, in assay [1] (setting [8]), the “Affinity relative to A6” value came out at 1.

Consider 5´-GPG-3´ [GG], for which the Kd entry in assay [1] (ITC, 20°C, LaM 20-30 µM in cell, RNA 300 µM in syringe, single set of identical sites) was “not fitted”; in assay [1] (setting [7]) it was “Not fittable”; in assay [1] (reversed titration: GG (15 µM) in cell + LaM (300 µM) in syringe, read-out: Kd), 2.8 µM and ~3 µM. In addition, the “Affinity relative to A6” value in assay [1] (Table S1, reversed titration: RNA 15 (cell), LaM 300 (syringe)) was determined as 11.2. The ΔH in assay [1] (setting [9]) was -34.1 kcal/mol. In assay [1] (setting [9]), the ΔS is on record as -91.1 cal mol-1 K-1.

For the compound `Nc1ncnc2c1ncn2[C@@H]1O[C@H](CO)[C@@H](OP(=O)(O)O)[C@H]1O` [3'-AMP, 3´-AMP], in assay [2] (NMR titration), the “Ile364 chemical shift change (in words)” value is “not appreciably shifted” and the “shift of the Ile364 peak, fold smaller than with 5´-AMP” value is recorded as 30 fold.

With 5´-APAPAPAPGPA-3´ [AAAAGA], the “Rel. aff. (affinity relative to AAAAAA)” value in assay [1] was determined as 3.2. In addition, the figures for the ΔH (in assay [1] (setting [7]); at LARP1 323-410 Q333A [4]) were -29.5 kcal/mol and -10.2 kcal/mol, respectively. Further, the ΔS in assay [1] (setting [7]) was -68.0 cal mol^-1 K^-1; at LARP1 323-410 Q333A [4], -11.9 cal mol-1 K-1. Further, the “Affinity relative to A6” value in assay [1] (setting [8]) came to 0.32. Further, the Kd on LARP1 323-410 Q333A [3] was 10 ± 6 µM.

For `Nc1ncnc2c1ncn2[C@@H]1O[C@H](COP(=O)(O)O)[C@@H](O)[C@H]1O` [5'-AMP, 5´-AMP], the Kd in assay [2] was 130 µM.

Take 5´-UPUPUPUPUPU-3´ [UUUUUU]: the Kd turned out to be 1.8 ± 0.1 µM in assay [1] (setting [6]) and 100 ± 30 µM on LARP1 323-410 Q333A [3]. Besides, the ΔH was -21.4 kcal/mol in assay [1] (setting [7]) and -11.0 kcal/mol at LARP1 323-410 Q333A [4]. Also, the ΔS was -46.6 cal mol^-1 K^-1 in assay [1] (setting [7]) and -19.2 cal mol-1 K-1 on LARP1 323-410 Q333A [4]. Also, the “Affinity relative to A6” value in assay [1] (setting [8]) is recorded as 7.2. The “fold weaker binding affinity than A6” value in assay [5] is 11 fold.

For `Nc1nc2c(ncn2[C@@H]2O[C@@H]3CO[P@](=O)(O)O[C@H]4[C@@H](O)[C@H](n5cnc6c(=O)[nH]c(N)nc65)O[C@@H]4CO[P@](=O)(O)O[C@H]3[C@H]2O)c(=O)[nH]1` [cyclic-di-GMP, Cyclic-di-GMP], the “binding to the LaM domain by ITC (in words)” value in assay [1] is “sub-micromolar affinity”. Further, in assay [1] (Table S1), the “Affinity relative to A6 (site 1)” value was determined as 1.2, the “Affinity relative to A6 (site 2)” value worked out at 220, the “ΔH (site 1)” value came to 0 kcal/mol and the “ΔH (site 2)” value was 2.0 kcal/mol. Besides, in assay [1] (Table S1), the “ΔS (site 1)” value came out at 29.8 cal mol-1 K-1 and the “ΔS (site 2)” value is 26.5 cal mol-1 K-1. In addition, the Kd in assay [1] (Table S1, LaM 40 (cell), ligand 730-750 (syringe), read-out: Kd (site 1)) worked out at 0.3 ± 0.3 µM. In assay [1] (Table S1, LaM 40 (cell), ligand 730-750 (syringe), read-out: Kd (site 2)), the Kd was over 10 µM. For the same compound, the Kd in assay [1] (second site, fit with two independent sets of sites, LaM 40 μM + ligand 730-750 μM, read-out: Kd2) is 54 µM.

As to 5´-APAPAPGPAPA-3´ [AAAGAA], the “Rel. aff. (affinity relative to AAAAAA)” value in assay [1] worked out at 1.8. Besides, in assay [1] (setting [6]), the Kd came out at 0.14 ± 0.02 µM. In assay [1] (setting [7]), this compound registered a ΔH of -27.7 kcal/mol and a ΔS of -63.2 cal mol^-1 K^-1. In addition, in assay [1] (setting [8]), the “Affinity relative to A6” value is 0.56.

Turning to `Nc1nc2c(ncn2[C@@H]2O[C@H](COP(=O)(O)O)[C@@H](O)[C@H]2O)c(=O)[nH]1` [5'-GMP, 5´-GMP], in assay [2], the Kd is 40 µM. Also, the “shift of the Gln333 signal relative to 5´-AMP” value in assay [2] (at 200 µM nucleotide) was “twice as much”. Also, the binding stoichiometry in assay [2] (from fit of NMR chemical shift changes) was found to be 2.04.

Take 5´-APAPAPAPAPSA-3´ [(SP)-AAAAAPSA]: in assay [1] (setting [7]), the ΔH is -23.1 kcal/mol and the ΔS is -57.1 cal mol^-1 K^-1. Also, in assay [1] (setting [10]), the Kd stood at 17 µM. Besides, in assay [1] (ITC, Figure 5D, compared with the (RP)-phosphorothioate), the “fold lower affinity of the (SP)-phosphorothioate” value was determined as 60 fold. The “Affinity relative to A6” value in assay [1] (setting [8]) is on record as 68.

Turning to `Nc1nc2c(ncn2[C@@H]2O[C@@H]3COP(=O)(O)O[C@H]4[C@@H](O)[C@H](n5cnc6c(N)ncnc65)O[C@@H]4COP(=O)(O)O[C@H]3[C@H]2O)c(=O)[nH]1` [3',3'-cGAMP, 3‘,3’-cGAMP], in assay [1], the Kd came to 0.7 ± 0.3 µM and the “binding to the LaM domain by ITC (in words)” value is given as “sub-micromolar affinity”. Besides, in assay [1] (Table S1), the “Affinity relative to A6 (site 1)” value was determined as 2.8, the “Affinity relative to A6 (site 2)” value was 440, the “ΔH (site 1)” value was 0 kcal/mol and the “ΔH (site 2)” value turned out to be 4.8 kcal/mol. For the same compound, in assay [1] (Table S1), the “ΔS (site 1)” value came to 28.3 cal mol-1 K-1 and the “ΔS (site 2)” value is 34.4 cal mol-1 K-1. The Kd in assay [1] (read-out: Kd2, second site, fit with two independent sets of sites, LaM 40 μM + ligand 730-750 μM) was 110 µM. For the same compound, in assay [1] (read-out: Kd (site 2), Table S1, LaM 40 (cell), ligand 730-750 (syringe)), the Kd is over 10 µM.

For 5´-APG-3´ [AG], in assay [1] (setting [7]), the ΔH is -23.9 kcal/mol and the ΔS is listed as -56.2 cal mol^-1 K^-1. Moreover, in assay [1] (setting [10]), the Kd is 3.1 µM and ~3 µM. Besides, the “Affinity relative to A6” value in assay [1] (setting [8]) worked out at 12.4.

Consider 5´-APAPAPAPAPG-3´ [AAAAAG], for which the “Rel. aff. (affinity relative to AAAAAA)” value in assay [1] was found to be 1.9. Moreover, the Kd in assay [1] (setting [6]) turned out to be 0.13 ± 0.02 µM; on LARP1 323-410 Q333A [3] it was 19 ± 2 µM. Besides, the ΔH in assay [1] (setting [7]) was -27.5 kcal/mol; at LARP1 323-410 Q333A [4] it was -27.8 kcal/mol. Besides, the ΔS in assay [1] (setting [7]) is on record as -62.3 cal mol^-1 K^-1; on LARP1 323-410 Q333A [4] it was -73.2 cal mol-1 K-1.

Turning to `Nc1ncnc2c1ncn2[C@@H]1O[C@H](COP(=O)(O)O)[C@@H](OP(=O)(O)O)[C@H]1O` [3',5'-ADP, 3´,5´-ADP], in assay [2] (NMR titration), the “Gln333 signal change (in words)” value is “broadened the Gln333 signal beyond detection” and the “Ile364 chemical shift change (in words)” value is “small shift”.
